Test results reported in PubChem BioAssay AID2060603 (Molecular Pharmacology Branch, DTP, NCI, 2025).
Values joined by “and” are separate entries in the source; they are usually repeats but may differ in a detail not shown here. Equal entries are not always repeated.

System: 422866-222-R5-J1-PDC spheroid viability
Test: Anticancer human tumor 422866-222-R5-J1-PDC patient-derived pancreatic adenocarcinoma cell line growth inhibition [CLK]
Conditions: spheroids with HUVEC and MSC; for viability, T/C: stronger effect = lower value; active = viability on the fitted dose curve at most 10% of control; inactive = the rest
Method in brief: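 Multi-cell-type spheroids combined patient-derived tumor cells with HUVEC endothelial cells and human mesenchymal stem cells. Paired agents were dosed in half-log steps down from about clinical Cmax, or from 10 microM where Cmax was unknown.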

[1] = curve of first compound, second compound 0.0316 µM
[2] = curve of first compound, second compound 0.1 µM
[3] = curve of first compound, second compound 0.316 µM
[4] = curve of first compound, second compound 1 µM
[5] = curve of first compound, second compound 3.16 µM
[6] = curve of first compound, second compound 10 µM
[7] = second compound 0.0316 µM, first compound 0.0316 µM
[8] = second compound 0.0316 µM, first compound 0.1 µM
[9] = second compound 0.0316 µM, first compound 0.316 µM
[10] = second compound 0.0316 µM, first compound 1 µM
[11] = second compound 0.0316 µM, first compound 3.16 µM
[12] = second compound 0.0316 µM, first compound 10 µM
[13] = second compound 0.1 µM, first compound 0.0316 µM
[14] = second compound 0.1 µM, first compound 0.1 µM
[15] = second compound 0.1 µM, first compound 0.316 µM
[16] = second compound 0.1 µM, first compound 1 µM
[17] = second compound 0.1 µM, first compound 3.16 µM
[18] = second compound 0.1 µM, first compound 10 µM
[19] = second compound 0.316 µM, first compound 0.0316 µM
[20] = second compound 0.316 µM, first compound 0.1 µM
[21] = second compound 0.316 µM, first compound 0.316 µM
[22] = second compound 0.316 µM, first compound 1 µM
[23] = second compound 0.316 µM, first compound 3.16 µM
[24] = second compound 0.316 µM, first compound 10 µM
[25] = second compound 1 µM, first compound 0.0316 µM
[26] = second compound 1 µM, first compound 0.1 µM
[27] = second compound 1 µM, first compound 0.316 µM
[28] = second compound 1 µM, first compound 1 µM
[29] = second compound 1 µM, first compound 3.16 µM
[30] = second compound 1 µM, first compound 10 µM
[31] = second compound 3.16 µM, first compound 0.0316 µM
[32] = second compound 3.16 µM, first compound 0.1 µM
[33] = second compound 3.16 µM, first compound 0.316 µM
[34] = second compound 3.16 µM, first compound 1 µM
[35] = second compound 3.16 µM, first compound 3.16 µM
[36] = second compound 3.16 µM, first compound 10 µM
[37] = second compound 10 µM, first compound 0.0316 µM
[38] = second compound 10 µM, first compound 0.1 µM
[39] = second compound 10 µM, first compound 0.316 µM
[40] = second compound 10 µM, first compound 1 µM
[41] = second compound 10 µM, first compound 3.16 µM
[42] = second compound 10 µM, first compound 10 µM
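Also: spheroids exposed to agents for seven days before readout.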

C=C(F)C(=O)N1CCN(c2nc(OCC3CCCN3C)nc3c2CCN(c2cccc4cccc(Cl)c24)C3)CC1CC#N (configuration not stated) + CN1CCN(c2cc(C(=O)Nc3cc4cc(-c5cnn(C)c5)ccc4cn3)ccn2)CC1
active: viability, T/C [12] 2.17% | viability, T/C [18] 1.79% | viability, T/C [24] 0.13% | viability, T/C [29] 10.2% | viability, T/C [30] 0.1% | viability, T/C [31] 4.24% | viability, T/C [32] 4.94% | viability, T/C [33] 4.57% | viability, T/C [34] 3.86% | viability, T/C [35] 4.64% | viability, T/C [36] 0.71% | viability, T/C [37] 3.87% | viability, T/C [38] 0.7% | viability, T/C [39] 0.93% | viability, T/C [40] 0.72% | viability, T/C [41] 0.46% | viability, T/C [42] 0.15%
< 31.6 nM: IC50 [1] | IC50 [2] | IC50 [3] | IC50 [4] | IC50 [5] | IC50 [6]
inactive: viability, T/C [7] 40.6% | viability, T/C [8] 29.3% | viability, T/C [9] 27% | viability, T/C [10] 26.2% | viability, T/C [11] 15.9% | viability, T/C [13] 45.5% | viability, T/C [14] 33.9% | viability, T/C [15] 29.3% | viability, T/C [16] 25.1% | viability, T/C [17] 19.9% | viability, T/C [19] 42.4% | viability, T/C [20] 30.6% | viability, T/C [21] 27.9% | viability, T/C [22] 20.1% | viability, T/C [23] 20% | viability, T/C [25] 19.9% | viability, T/C [26] 18.5% | viability, T/C [27] 18.6% | viability, T/C [28] 16.4%

Nc1ccccc1NC(=O)c1ccc(CNC(=O)OCc2cccnc2)cc1
inactive: viability, T/C (compound 0.0316 µM) 102% and 93.7% | viability, T/C (compound 0.1 µM) 129% and 108% | viability, T/C (compound 0.316 µM) 144% and 139% | viability, T/C (compound 1 µM) 106% and 104% | viability, T/C (compound 3.16 µM) 78.5% and 92.5% | viability, T/C (compound 10 µM) 86.9% and 81.8%
> 10000 nM: IC50 (curve of compound)

Nc1ccccc1NC(=O)c1ccc(CNC(=O)OCc2cccnc2)cc1 + CN1CCN(c2cc(C(=O)Nc3cc4cc(-c5cnn(C)c5)ccc4cn3)ccn2)CC1
active: viability, T/C [29] 4.32% | viability, T/C [30] 5.2% | viability, T/C [31] 8.75% | viability, T/C [32] 8.34% | viability, T/C [33] 4.74% | viability, T/C [34] 4.04% | viability, T/C [35] 3.26% | viability, T/C [36] 8.29% | viability, T/C [37] 2.62% | viability, T/C [38] 1.81% | viability, T/C [39] 1.37% | viability, T/C [40] 1.01% | viability, T/C [41] 2.34% | viability, T/C [42] 4.45%
> 10000 nM: IC50 [1] | IC50 [2]
inactive: viability, T/C [7] 121% | viability, T/C [8] 137% | viability, T/C [9] 121% | viability, T/C [10] 114% | viability, T/C [11] 75.8% | viability, T/C [12] 60.4% | viability, T/C [13] 135% | viability, T/C [14] 118% | viability, T/C [15] 121% | viability, T/C [16] 96.6% | viability, T/C [17] 74.5% | viability, T/C [18] 62.6% | viability, T/C [19] 106% | viability, T/C [20] 95.5% | viability, T/C [21] 91.1% | viability, T/C [22] 62.5% | viability, T/C [23] 46.9% | viability, T/C [24] 19.5% | viability, T/C [25] 28.4% | viability, T/C [26] 28.6% | viability, T/C [27] 25.6% | viability, T/C [28] 16.1%
2380 nM: IC50 [3]
< 31.6 nM: IC50 [4] | IC50 [5] | IC50 [6]

NC(=O)C(=Cn1cnc(-c2cc(C(F)(F)F)cc(C(F)(F)F)c2)n1)c1cncnc1
inactive: viability, T/C (compound 0.00949 µM) 95.7% and 97.4% | viability, T/C (compound 0.03 µM) 103% and 84% | viability, T/C (compound 0.0949 µM) 86.1% and 81.5% | viability, T/C (compound 0.3 µM) 72.6% and 58.2% | viability, T/C (compound 0.949 µM) 89.1% and 92.3% | viability, T/C (compound 3 µM) 76.9% and 76.2%
> 3000 nM: IC50 (curve of compound)

O=C(c1cc(Cc2n[nH]c(=O)c3ccccc23)ccc1F)N1CCN(C(=O)C2CC2)CC1
> 10000 nM: IC50 (curve of compound)
inactive: viability, T/C (compound 0.0316 µM) 99% and 103% | viability, T/C (compound 0.1 µM) 94% and 98.7% | viability, T/C (compound 0.316 µM) 102% and 87.7% | viability, T/C (compound 1 µM) 102% and 105% | viability, T/C (compound 3.16 µM) 80.1% and 94% | viability, T/C (compound 10 µM) 81.2% and 78.8%

C=CC(=O)N1CCN(c2nc(=O)n(-c3c(C)ccnc3C(C)C)c3nc(-c4c(O)cccc4F)c(F)cc23)C(C)C1 (configuration not stated)
< 31.6 nM: IC50 (curve of compound)
inactive: viability, T/C (compound 0.0316 µM) 33% and 35.7% | viability, T/C (compound 0.1 µM) 27% and 28.4% | viability, T/C (compound 0.316 µM) 24.9% and 25.6% | viability, T/C (compound 1 µM) 27.6% and 25.6% | viability, T/C (compound 3.16 µM) 32.8% and 25.4% | viability, T/C (compound 10 µM) 25.2% and 30%
